Read-outs that look alike come from different tables or passages of the source.
Tests used:
Test in all cases: biochemical
Set-up in all cases: KINOMEscan scanMAX competition binding, DNA-tagged kinases, qPCR read-out, percent control at 300 nM
KIT = KIT (Homo sapiens, UniProt P10721)
FLT1 = FLT1 (Homo sapiens, UniProt P17948)
ERBB2 = ERBB2 (Homo sapiens, UniProt P04626)
PRKCQ = PRKCQ (Homo sapiens, UniProt Q04759)
TXK = target: T1, TXK (Homo sapiens, UniProt P42681)
T1 sequence (P42681 1-527): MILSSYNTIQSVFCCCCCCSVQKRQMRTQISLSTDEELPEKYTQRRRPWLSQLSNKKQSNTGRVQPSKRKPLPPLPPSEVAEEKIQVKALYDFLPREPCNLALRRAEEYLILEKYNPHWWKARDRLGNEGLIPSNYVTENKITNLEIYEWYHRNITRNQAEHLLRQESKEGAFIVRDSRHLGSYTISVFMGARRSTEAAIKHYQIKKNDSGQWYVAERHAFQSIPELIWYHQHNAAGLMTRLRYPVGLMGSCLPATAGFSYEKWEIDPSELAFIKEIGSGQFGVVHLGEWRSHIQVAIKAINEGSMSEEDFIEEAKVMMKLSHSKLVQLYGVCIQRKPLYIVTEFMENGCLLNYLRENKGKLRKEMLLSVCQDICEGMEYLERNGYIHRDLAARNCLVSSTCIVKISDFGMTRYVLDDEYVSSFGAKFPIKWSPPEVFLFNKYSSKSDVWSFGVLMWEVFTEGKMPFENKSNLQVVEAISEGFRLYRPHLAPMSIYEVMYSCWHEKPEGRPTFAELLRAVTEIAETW

ITK = target: T2, ITK (Homo sapiens, UniProt Q08881)
T2 sequence (Q08881 1-620): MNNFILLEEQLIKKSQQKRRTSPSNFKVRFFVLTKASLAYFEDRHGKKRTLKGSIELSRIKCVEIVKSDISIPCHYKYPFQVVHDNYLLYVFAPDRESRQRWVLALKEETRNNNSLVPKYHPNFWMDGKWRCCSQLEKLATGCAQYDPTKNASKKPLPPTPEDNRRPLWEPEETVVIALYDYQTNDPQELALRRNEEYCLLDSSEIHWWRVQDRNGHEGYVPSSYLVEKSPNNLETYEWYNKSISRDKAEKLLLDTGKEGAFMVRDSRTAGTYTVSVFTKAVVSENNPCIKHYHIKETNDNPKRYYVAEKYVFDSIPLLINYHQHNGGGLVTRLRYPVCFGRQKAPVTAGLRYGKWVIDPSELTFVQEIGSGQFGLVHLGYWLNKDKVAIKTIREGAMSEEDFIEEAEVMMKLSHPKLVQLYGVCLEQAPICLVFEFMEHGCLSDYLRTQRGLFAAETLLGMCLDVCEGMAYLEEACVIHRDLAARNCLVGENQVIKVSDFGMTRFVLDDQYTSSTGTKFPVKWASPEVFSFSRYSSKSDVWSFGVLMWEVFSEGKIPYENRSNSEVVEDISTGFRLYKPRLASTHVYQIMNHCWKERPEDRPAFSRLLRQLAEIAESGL

BLK = BLK (Homo sapiens, UniProt P51451)
FGFR3 = FGFR3 (Homo sapiens, UniProt P22607)
[1] = target: EGFR(L747-E749del, A750P) (Homo sapiens, UniProt P00533, A750P/DEL747-749)
[2] = read-out: Percent control / Tirabrutinib
[3] = read-out: Percent control / Zanubrutinib
[4] = read-out: Percent control / Acalabrutinib
[5] = read-out: Percent control / Ibrutinib

EGFR(L747-E749del, A750P), sequence (P00533 with tags, fused parts or gaps DEL747-749/A750P): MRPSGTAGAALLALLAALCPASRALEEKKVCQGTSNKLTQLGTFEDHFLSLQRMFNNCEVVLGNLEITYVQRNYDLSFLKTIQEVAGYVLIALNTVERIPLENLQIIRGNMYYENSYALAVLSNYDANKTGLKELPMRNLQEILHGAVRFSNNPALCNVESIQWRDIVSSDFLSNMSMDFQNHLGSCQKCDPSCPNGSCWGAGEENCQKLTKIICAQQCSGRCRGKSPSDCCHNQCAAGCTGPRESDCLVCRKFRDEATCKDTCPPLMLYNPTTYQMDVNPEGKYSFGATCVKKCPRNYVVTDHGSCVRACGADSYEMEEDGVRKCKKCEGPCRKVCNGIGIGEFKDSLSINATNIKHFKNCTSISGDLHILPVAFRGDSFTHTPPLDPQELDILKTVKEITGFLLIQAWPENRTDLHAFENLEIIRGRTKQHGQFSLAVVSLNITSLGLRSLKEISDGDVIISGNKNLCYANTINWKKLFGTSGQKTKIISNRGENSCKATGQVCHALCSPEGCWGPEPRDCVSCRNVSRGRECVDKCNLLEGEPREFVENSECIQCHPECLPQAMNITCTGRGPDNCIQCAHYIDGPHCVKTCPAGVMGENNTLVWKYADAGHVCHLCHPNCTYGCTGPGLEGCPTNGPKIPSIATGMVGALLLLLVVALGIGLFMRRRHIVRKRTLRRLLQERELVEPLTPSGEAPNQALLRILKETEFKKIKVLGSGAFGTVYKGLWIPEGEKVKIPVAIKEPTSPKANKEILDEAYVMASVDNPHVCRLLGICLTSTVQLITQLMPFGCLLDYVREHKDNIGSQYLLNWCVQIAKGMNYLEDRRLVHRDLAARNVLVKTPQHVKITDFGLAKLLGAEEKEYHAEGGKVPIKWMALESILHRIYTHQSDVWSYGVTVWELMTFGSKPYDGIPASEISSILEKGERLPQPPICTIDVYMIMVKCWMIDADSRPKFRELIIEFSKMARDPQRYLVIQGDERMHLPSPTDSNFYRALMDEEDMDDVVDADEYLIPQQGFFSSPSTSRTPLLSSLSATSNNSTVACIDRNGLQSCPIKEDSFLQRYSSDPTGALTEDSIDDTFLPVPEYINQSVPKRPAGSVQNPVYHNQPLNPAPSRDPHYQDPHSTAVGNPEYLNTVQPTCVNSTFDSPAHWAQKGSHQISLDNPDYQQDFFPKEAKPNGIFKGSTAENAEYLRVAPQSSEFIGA
PRKCQ, sequence (Q04759 whole entry): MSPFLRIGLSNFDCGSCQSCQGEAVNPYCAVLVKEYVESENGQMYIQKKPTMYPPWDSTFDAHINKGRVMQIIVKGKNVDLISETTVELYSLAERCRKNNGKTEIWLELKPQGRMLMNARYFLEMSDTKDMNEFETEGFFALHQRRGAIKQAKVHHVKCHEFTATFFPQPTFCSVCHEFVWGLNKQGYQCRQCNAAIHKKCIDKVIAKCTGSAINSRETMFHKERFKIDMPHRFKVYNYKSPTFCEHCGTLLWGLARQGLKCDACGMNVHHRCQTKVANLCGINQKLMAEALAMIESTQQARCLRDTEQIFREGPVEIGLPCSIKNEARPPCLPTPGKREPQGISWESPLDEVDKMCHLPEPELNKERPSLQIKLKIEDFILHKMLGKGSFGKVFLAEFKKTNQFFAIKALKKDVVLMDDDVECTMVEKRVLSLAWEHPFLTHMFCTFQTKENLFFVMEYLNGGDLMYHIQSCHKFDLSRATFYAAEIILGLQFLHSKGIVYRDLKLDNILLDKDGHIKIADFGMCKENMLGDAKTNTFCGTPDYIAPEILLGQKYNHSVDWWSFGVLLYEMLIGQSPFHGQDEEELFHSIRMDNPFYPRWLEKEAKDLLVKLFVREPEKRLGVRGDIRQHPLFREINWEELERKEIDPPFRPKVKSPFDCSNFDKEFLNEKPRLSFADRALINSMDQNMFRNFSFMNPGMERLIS
KIT, sequence (P10721 whole entry): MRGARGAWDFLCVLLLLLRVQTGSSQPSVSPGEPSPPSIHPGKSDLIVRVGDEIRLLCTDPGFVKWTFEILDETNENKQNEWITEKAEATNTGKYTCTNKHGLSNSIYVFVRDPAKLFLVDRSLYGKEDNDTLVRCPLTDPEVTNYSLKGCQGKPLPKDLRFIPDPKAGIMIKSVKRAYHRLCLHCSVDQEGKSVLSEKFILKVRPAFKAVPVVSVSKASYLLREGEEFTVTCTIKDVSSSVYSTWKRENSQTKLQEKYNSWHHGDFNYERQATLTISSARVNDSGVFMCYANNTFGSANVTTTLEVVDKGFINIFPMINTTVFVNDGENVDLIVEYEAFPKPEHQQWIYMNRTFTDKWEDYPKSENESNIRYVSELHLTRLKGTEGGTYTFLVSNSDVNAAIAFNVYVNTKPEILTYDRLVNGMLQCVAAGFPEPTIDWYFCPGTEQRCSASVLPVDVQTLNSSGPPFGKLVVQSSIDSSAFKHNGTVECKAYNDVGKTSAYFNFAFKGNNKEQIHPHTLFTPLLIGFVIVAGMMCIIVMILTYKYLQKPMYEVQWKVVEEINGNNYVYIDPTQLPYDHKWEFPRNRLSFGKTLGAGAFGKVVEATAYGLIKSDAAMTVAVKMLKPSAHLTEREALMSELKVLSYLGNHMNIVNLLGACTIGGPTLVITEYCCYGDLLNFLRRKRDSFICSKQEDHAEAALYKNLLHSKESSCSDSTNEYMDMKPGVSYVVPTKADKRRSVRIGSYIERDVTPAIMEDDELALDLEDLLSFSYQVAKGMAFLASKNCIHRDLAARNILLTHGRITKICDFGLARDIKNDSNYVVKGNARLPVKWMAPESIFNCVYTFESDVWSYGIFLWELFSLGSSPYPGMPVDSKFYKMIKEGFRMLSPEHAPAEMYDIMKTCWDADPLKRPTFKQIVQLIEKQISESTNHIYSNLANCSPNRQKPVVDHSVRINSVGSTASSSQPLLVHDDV
ERBB2, sequence (P04626 whole entry): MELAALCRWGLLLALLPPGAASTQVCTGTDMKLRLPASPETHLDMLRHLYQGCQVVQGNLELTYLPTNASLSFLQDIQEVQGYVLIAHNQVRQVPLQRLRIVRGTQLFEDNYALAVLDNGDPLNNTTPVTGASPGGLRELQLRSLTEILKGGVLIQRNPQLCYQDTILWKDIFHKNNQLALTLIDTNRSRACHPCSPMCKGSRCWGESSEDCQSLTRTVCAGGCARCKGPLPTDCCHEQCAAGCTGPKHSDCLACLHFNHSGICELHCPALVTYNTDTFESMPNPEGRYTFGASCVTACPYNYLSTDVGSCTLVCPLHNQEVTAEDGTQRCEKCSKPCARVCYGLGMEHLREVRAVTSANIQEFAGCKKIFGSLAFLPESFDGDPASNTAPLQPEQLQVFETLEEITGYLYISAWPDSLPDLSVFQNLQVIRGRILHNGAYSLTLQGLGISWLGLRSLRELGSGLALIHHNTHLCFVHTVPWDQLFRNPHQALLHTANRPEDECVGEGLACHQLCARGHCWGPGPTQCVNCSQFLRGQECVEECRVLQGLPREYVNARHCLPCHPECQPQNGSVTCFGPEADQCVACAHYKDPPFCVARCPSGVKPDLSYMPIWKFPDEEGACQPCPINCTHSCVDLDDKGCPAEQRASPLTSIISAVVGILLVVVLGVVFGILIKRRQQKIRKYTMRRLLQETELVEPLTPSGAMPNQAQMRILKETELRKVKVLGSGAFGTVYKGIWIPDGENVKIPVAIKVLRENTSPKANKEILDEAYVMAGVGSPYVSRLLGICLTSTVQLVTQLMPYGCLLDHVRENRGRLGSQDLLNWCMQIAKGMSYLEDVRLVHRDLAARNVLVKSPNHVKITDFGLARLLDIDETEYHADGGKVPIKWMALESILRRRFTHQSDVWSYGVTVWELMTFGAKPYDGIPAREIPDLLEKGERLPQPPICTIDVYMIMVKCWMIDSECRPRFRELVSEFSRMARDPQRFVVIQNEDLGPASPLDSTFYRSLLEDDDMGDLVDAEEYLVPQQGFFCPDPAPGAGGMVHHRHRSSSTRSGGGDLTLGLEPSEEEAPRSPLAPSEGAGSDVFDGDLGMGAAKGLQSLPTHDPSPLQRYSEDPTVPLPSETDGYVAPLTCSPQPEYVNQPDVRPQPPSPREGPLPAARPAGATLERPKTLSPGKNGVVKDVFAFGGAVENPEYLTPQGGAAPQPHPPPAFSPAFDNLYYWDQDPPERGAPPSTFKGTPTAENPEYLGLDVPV
FGFR3, sequence (P22607 whole entry): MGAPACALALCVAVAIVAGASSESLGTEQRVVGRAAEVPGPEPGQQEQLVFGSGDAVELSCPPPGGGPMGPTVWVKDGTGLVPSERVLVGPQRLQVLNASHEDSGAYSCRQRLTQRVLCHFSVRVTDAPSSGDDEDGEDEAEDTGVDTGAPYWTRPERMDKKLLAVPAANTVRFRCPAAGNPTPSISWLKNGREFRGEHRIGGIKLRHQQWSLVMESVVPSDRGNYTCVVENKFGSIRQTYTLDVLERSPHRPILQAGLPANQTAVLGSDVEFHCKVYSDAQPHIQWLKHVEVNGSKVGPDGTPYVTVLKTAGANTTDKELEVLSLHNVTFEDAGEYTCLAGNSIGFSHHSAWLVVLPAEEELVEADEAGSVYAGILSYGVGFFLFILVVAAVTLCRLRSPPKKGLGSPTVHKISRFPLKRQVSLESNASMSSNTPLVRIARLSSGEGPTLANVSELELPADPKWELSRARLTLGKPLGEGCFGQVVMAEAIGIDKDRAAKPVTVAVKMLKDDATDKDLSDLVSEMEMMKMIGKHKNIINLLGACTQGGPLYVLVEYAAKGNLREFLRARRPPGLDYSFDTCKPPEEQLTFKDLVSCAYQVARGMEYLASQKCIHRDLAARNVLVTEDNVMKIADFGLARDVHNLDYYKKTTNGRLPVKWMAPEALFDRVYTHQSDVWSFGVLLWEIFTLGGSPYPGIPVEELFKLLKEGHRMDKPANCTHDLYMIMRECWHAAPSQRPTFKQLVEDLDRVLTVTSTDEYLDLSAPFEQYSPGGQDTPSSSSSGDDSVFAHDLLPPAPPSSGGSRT

CC#CC(=O)N1CC[C@@H](n2c(=O)n(-c3ccc(Oc4ccccc4)cc3)c3c(N)ncnc32)C1 [Tirabrutinib]
remaining binding at 0.3 µM (KIT; [2]): 91% | remaining binding at 0.3 µM (FLT1; [2]): 74% | remaining binding at 0.3 µM (ERBB2; [2]): 36% | remaining binding at 0.3 µM (PRKCQ; [2]): 93% | remaining binding at 0.3 µM (TXK; [2]): 38% | remaining binding at 0.3 µM (ITK; [2]): 99% | remaining binding at 0.3 µM (BLK; [2]): 39% | remaining binding at 0.3 µM (FGFR3; [2]): 92% | remaining binding at 0.3 µM [1, 2]: 69%

C=CC(=O)N1CCC([C@@H]2CCNc3c(C(N)=O)c(-c4ccc(Oc5ccccc5)cc4)nn32)CC1 [Zanubrutinib]
remaining binding at 0.3 µM (KIT; [3]): 100% | remaining binding at 0.3 µM (ERBB2; [3]): 16% | remaining binding at 0.3 µM (PRKCQ; [3]): 87% | remaining binding at 0.3 µM (TXK; [3]): 14% | remaining binding at 0.3 µM (ITK; [3]): 97% | remaining binding at 0.3 µM (FGFR3; [3]): 93%

CC#CC(=O)N1CCC[C@H]1c1nc(-c2ccc(C(=O)Nc3ccccn3)cc2)c2c(N)nccn12 [Acalabrutinib]
remaining binding at 0.3 µM (KIT; [4]): 91% | remaining binding at 0.3 µM (FLT1; [4]): 89% | remaining binding at 0.3 µM (ERBB2; [4]): 11% | remaining binding at 0.3 µM (PRKCQ; [4]): 84% | remaining binding at 0.3 µM (TXK; [4]): 43% | remaining binding at 0.3 µM (ITK; [4]): 97% | remaining binding at 0.3 µM (BLK; [4]): 80% | remaining binding at 0.3 µM (FGFR3; [4]): 95% | remaining binding at 0.3 µM [1, 4]: 91%

C=CC(=O)N1CCC[C@@H](n2nc(-c3ccc(Oc4ccccc4)cc3)c3c(N)ncnc32)C1 [Ibrutinib]
remaining binding at 0.3 µM (FLT1; [5]): 82% | remaining binding at 0.3 µM (TXK; [5]): 0.4% | remaining binding at 0.3 µM (ITK; [5]): 27% | remaining binding at 0.3 µM (BLK; [5]): 0.5% | remaining binding at 0.3 µM [1, 5]: 10%
